Each block holds one compound with its values, some of them ahead of it. Non-standard residues stand in square brackets, D forms with d. Residues, ends and D or L forms follow the SMILES beside them. *: point of attachment. Sta = CC(C)C[C@H](N)[C@@H](O)CC(=O)O; Isovaleryl = CC(C)CC(=O)*
Assays:
human renin = biological target: T1, human renin (Homo sapiens, UniProt P00797); experiment: Human Renin Inhibition in vitro; format: biochemical; details: pH 7.4, 37° C., two hours, human plasma, angiotensin I by radioimmunoassay
T1 construct: purchased National Institute for Biological Standards, London
T1 sequence (P00797 67-406): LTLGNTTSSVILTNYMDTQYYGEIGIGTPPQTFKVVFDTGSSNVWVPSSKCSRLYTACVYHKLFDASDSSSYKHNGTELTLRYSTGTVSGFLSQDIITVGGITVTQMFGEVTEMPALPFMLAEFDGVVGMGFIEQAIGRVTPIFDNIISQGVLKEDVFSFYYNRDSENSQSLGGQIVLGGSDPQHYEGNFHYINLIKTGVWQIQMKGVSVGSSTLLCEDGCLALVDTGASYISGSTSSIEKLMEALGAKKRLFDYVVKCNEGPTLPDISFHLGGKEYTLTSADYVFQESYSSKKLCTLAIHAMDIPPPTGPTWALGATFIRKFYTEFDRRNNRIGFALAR
Method: Compounds of Formula I were evaluated as inhibitors of human renin in an vitro assay, as follows: This human renin inhibition test has been previously described in detail [Papaioannou et al., Clinical and Experimental Hypertension, A7 (9), 1243-1257 (1985)]. Human renin was obtained from the National Institute for Biological Standards, London. An incubation mixture was prepared containing the following components: in a total volume of 0.25 mL: 100 mM Tris-acetate buffer at pH 7.4, 25×10^-6 Goldblatt units of renin, 0.05 mL of plasma from human volunteers taking oral contraceptives, 6.0 mM Na-EDTA, 2.4 mM phenylmethyl sulfonyl fluoride, 1.5 mM 8-hydroxyquinoline, 0.4 mg/mL bovine serum albumin (BSA), and 0.024 mg/mL neomycin sulfate. This mixture was incubated for two hours at 37° C. in the presence or absence of renin inhibitors. The produced angiotensin I was determined by radioimmunoassay (New England Nuclear kit). Test compounds to be assayed were dissolved in DMSO and diluted with 100 mM Tris-acetate buffer at pH 7.4 containing 0.5% BSA to the appropriate concentration. The final concentration of organic solvent in the reaction mixture was less than 1%. Control incubations at 37° C. were used to correct for effects of organic solvent on renin activity.

renin = details: Umezawa et al, J. Antibiot. (Tokyo), 23, 259-262 (1970); cited from earlier work
pepsin = details: Umezawa et al, J. Antibiot. (Tokyo), 23, 259-262 (1970); cited from earlier work
cathepsin D = details: Umezawa et al, J. Antibiot. (Tokyo), 23, 259-262 (1970); cited from earlier work
hog renin = details: after the injection of hog renin into nephrectomized rats; Gross et al, Science, 175, 656 (1971); cited from earlier work

IC50 (human renin): 0.23 nM
Structure (SMILES): C#CC[C@H](NC(=O)C(Cc1ccccc1)CS(=O)(=O)C(C)(C)C)C(=O)N[C@@H](CC1CCCCC1)[C@@H](O)[C@@H](O)CC(C)C (stereo partly drawn) [Example 1, N-[[1R*-[[1S,1R*(cyclohexylmethyl)-2S*,3R*-dihydroxy-5-methylhexyl]amino]carbonyl]-3-butynyl]-α-[[(1,1-dimethylethyl)sulfonyl]methyl]benzenepropanamide]

IC50 (human renin): 0.17 nM
Structure (SMILES): C#CC[C@H](NC(=O)[C@H](Cc1ccccc1)CS(=O)(=O)C(C)(C)C)C(=O)N[C@@H](CC1CCCCC1)[C@@H](O)[C@@H](O)CC(C)C [Example 2, N-[[1R*-[[1S,1R*(cyclohexylmethyl)-2S*,3R*-dihydroxy-5-methylhexyl]amino]carbonyl]-3-butynyl]-αR*-[[(1,1-dimethylethyl)sulfonyl]methyl]benzenepropanamide]

inhibition at 0.1 µM (human renin; @ 100 nM): 34%
Structure (SMILES): C#CC[C@H](NC(=O)CCS(=O)(=O)c1ccccc1)C(=O)N[C@@H](CC1CCCCC1)[C@@H](O)[C@@H](O)CC(C)C [Example 3, N-[1S,1R*(cyclohexylmethyl)-2S*,3R*-dihydroxy-5-methylhexyl]-2R*-[[1-oxo-3-[phenylsulfonyl]propyl]amino]-4-pentynamide]

Structure (SMILES): CC(C)CC(=O)N[C@H](C(=O)N[C@H](C(=O)N[C@@H](CC(C)C)[C@@H](O)CC(=O)N[C@@H](C)C(=O)N[C@@H](CC(C)C)[C@@H](O)CC(=O)O)C(C)C)C(C)C [pepstatin] (Isovaleryl-VV[Sta]A[Sta]-OH)
inhibitor of renin (renin): inhibitor | inhibitor of pepsin (pepsin): inhibitor | inhibitor of cathepsin D (cathepsin D): inhibitor | blood pressure in vivo (hog renin): reduce blood pressure

Source: US5314920A, “Ethynyl-alanine aryl/alkylsulfonyl-terminated amino-diol compounds for treatment of hypertension” (G. D. Searle & Co., priority 1992, dated 1994)
